The text below walks through data of US12427166B2, “Antifungal agent” (priority 2015, dated 2025).

What all share (assay): EUCAST micro broth dilution in vitro susceptibility testing
Common to all, as to format: cell-based
(In general: Dilution methods test growth across graded concentrations, often in twofold steps.)

Test [1] concerns Fusarium Proliferatum (clinical sample). The method, then: (§1) The antifungal activity of a composition comprising Poly-(hexamethylene-guanidium chloride) and N,N-didecyl-N-methyl-poly(oxyethyl) ammonium propionate in a ratio of about 1:1 with respect to the molar amount was tested on wild type Aspergillus fumigatus (ATCC 204305) and azole resistant strains (TR 34/L98H and TR46/Y121F/T289A) as well as one clinical sample of Fusarium proliferatum and one clinical sample of Scedosporium Apiospermum was evaluated by means of EUCAST micro broth dilution1. This test method is currently recognized as the gold standard for in vitro susceptibility testing of filamenteus fungi. The test drug was diluted 1:30 in RPMI 1640 in order to obtain a max test concentration of 100 PPM. The test was performed three times for each test strain. The test drug was tested in the concentration range from 1-100 ppm.

The test system of test [2] is Aspergillus fumigatus TR46/Y121F/T289A (azole resistant). The method, then:
as §1

Test [3] has as its system Aspergillus fumigatus TR34/L98H (azole resistant). The method, then: as §1
Test [4] concerns Scedosporium Apiospermum (clinical sample). The method, then:
as §1

Test [5] has as its system Aspergillus fumigatus ATCC 204305 (wild type). The procedure: as §1
The mark [6] stands for this setting: Aspergillus fumigatus TR46/Y121F/T289A.
Setting [7] is: Aspergillus fumigatus TR34/L98H.

In brackets after ≈: the same amount, converted by molar mass. Where two headings read alike, the source gives them in different places. A value given as a limit tells only on which side of the number the result lay.

Consider `C[C@@H]1[C@H](O)[C@@H](C)/C=C/C=C/C=C/C=C/C=C/C=C/C=C/[C@H](O[C@@H]2O[C@H](C)[C@@H](O)[C@H](N)[C@@H]2O)C[C@@H]2O[C@](O)(C[C@@H](O)C[C@@H](O)[C@H](O)CC[C@@H](O)C[C@@H](O)CC(=O)O[C@H]1C)C[C@H](O)[C@H]2C(=O)O` [Amphotericin B], for which the MIC (as a rule, the smallest concentration in the dilution series that meets the test's criterion for growth inhibition) in test [1] amounted to 1 µg/mL (≈ 1.08 µM); in test [2] (setting [6]), 0.25 µg/mL (≈ 0.271 µM); in test [3] (setting [7]), 0.25 µg/mL (≈ 0.271 µM); in test [4], 4 µg/mL (≈ 4.33 µM); in test [5], 0.25 µg/mL (≈ 0.271 µM).
For the compound `CCC(C)n1ncn(-c2ccc(N3CCN(c4ccc(OCC5COC(Cn6cncn6)(c6ccc(Cl)cc6Cl)O5)cc4)CC3)cc2)c1=O` (stereo not shown) [Itraconazol], the MIC in test [1] (read-out: MIC) is over 8 µg/mL; in test [2] (Aspergillus fumigatus), 1 µg/mL (≈ 1.42 µM); in test [3] (Aspergillus fumigatus), over 8 µg/mL; in test [4] (read-out: MIC) it was 0.25 µg/mL (≈ 0.354 µM); in test [5], 0.125 µg/mL (≈ 0.177 µM).
In the case of `C[C@@H]1C/C=C/C=C/C=C/C=C/[C@H](O[C@@H]2O[C@H](C)[C@@H](O)[C@H](N)[C@@H]2O)C[C@@H]2O[C@](O)(C[C@@H](O)C[C@H]3O[C@@H]3/C=C/C(=O)O1)C[C@H](O)[C@H]2C(=O)O` [Natamycin], the MIC in test [1] (read-out: MIC) was 4 µg/mL (≈ 6.01 µM); in test [2] (Aspergillus fumigatus) it was 2 µg/mL (≈ 3 µM); in test [3] (Aspergillus fumigatus) it was 4 µg/mL (≈ 6.01 µM); in test [4] (read-out: MIC), 2 µg/mL (≈ 3 µM); in test [5] (ATCC204305, read-out: MIC), 4 µg/mL (≈ 6.01 µM).
On to `CN(C/C=C/C#CC(C)(C)C)Cc1cccc2ccccc12` [Terbinafin], for which the MIC in test [1] is 1 µg/mL (≈ 3.43 µM); in test [2] (setting [6]) it was 2 µg/mL (≈ 6.86 µM); in test [3] (setting [7]), 4 µg/mL (≈ 13.7 µM); in test [4], over 16 µg/mL; in test [5], 2 µg/mL (≈ 6.86 µM).
For `C[C@@H](c1ncncc1F)[C@](O)(Cn1cncn1)c1ccc(F)cc1F` [Voriconazol], the MIC in test [1] (read-out: MIC) is 4 µg/mL (≈ 11.5 µM); in test [2] (Aspergillus fumigatus), over 16 µg/mL; in test [3] (Aspergillus fumigatus), 4 µg/mL (≈ 11.5 µM); in test [4] (read-out: MIC) it was 0.25 µg/mL (≈ 0.716 µM); in test [5] (ATCC204305, read-out: MIC) it was 0.5 µg/mL (≈ 1.43 µM).
